{"source": "patent US9200051B2", "about": "“Peptide compound” (TAKEDA PHARMACEUTICAL COMPANY LIMITED, priority 2013, dated 2015)", "key": {"[1]": {"experiment": "Solubility test in Britton-Robinson buffer, observed visually", "format": "physicochemical", "experimental": "The test compound of approximately 2 mg was measured precisely. Solvents (10 μL, 20 μL or 40 μL) with different pH (Britton-Robinson buffer (pH 3, 5, 7, 9)) were added to each test compound at 25° C., and the solubility was observed visually."}, "[2]": {"molecular_target": "T1, human GLP-1R (Homo sapiens, UniProt P43220)", "T1 construct": "expressed in transfected cells; host or cells: CHO-K1, plasmids hGLP-1/pIRESneo3 and Cre-luc(Zeo)", "T1 sequence (P43220 24-463)": "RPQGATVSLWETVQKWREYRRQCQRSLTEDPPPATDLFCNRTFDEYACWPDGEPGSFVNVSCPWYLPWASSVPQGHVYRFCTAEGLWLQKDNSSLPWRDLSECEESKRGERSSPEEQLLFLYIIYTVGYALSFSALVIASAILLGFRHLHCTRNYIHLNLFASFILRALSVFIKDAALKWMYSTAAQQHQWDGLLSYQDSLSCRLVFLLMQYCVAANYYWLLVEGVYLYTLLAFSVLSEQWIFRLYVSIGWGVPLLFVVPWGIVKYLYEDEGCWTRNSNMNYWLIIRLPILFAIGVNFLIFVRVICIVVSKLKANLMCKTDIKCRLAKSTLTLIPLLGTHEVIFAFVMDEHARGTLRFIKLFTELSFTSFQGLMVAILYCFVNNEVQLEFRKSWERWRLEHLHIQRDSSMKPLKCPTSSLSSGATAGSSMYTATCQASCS", "experiment": "Agonist activity against human GLP-1R, CRE-luciferase reporter assay in hGLP-1R/CRE-luc/CHO-K1 cells", "format": "cell-based", "conditions": "hGLP-1R/CRE-luc/CHO-K1 cells, 4 hours incubation; 10 nM GLP-1 = 100%; read-out: Agonist activity (EC50) hGLP-1R"}, "[3]": {"molecular_target": "T2, human glucagon R (Homo sapiens, UniProt P47871)", "T2 construct": "expressed in transfected cells; host or cells: CHO-K1 (CRE-LUC/CHO-K1), plasmid hGlucagonR/pMSRα-neo", "T2 sequence (P47871 26-477)": "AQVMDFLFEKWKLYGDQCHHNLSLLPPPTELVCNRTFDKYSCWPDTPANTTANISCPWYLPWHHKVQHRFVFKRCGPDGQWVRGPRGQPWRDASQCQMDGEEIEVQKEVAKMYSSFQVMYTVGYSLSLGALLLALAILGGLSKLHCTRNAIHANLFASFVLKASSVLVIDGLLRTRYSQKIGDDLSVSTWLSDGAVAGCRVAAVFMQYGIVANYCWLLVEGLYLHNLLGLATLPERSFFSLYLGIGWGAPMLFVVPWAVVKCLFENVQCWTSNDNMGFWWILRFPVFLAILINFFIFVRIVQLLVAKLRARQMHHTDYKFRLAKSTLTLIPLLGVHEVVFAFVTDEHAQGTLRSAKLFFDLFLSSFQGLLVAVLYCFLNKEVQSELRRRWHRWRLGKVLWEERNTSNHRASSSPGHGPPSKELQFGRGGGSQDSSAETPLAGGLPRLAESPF", "experiment": "Agonist activity against human glucagon R, CRE-luciferase reporter assay in hGlucagonR/CRE-LUC/CHO-K1 cells", "format": "cell-based", "conditions": "hGlucagonR/CRE-LUC/CHO-K1 cells, 4 hours incubation; 10 nM glucagon = 100%; read-out: Agonist activity (EC50) hGCGR"}, "[4]": {"molecular_target": "T3, human GIPR (Homo sapiens, UniProt P48546)", "T3 construct": "expressed in transfected cells; host or cells: CHO-K1 (CRE-LUC/CHO-K1), plasmid hGIPR/pMSRα-neo", "T3 sequence (P48546 22-466)": "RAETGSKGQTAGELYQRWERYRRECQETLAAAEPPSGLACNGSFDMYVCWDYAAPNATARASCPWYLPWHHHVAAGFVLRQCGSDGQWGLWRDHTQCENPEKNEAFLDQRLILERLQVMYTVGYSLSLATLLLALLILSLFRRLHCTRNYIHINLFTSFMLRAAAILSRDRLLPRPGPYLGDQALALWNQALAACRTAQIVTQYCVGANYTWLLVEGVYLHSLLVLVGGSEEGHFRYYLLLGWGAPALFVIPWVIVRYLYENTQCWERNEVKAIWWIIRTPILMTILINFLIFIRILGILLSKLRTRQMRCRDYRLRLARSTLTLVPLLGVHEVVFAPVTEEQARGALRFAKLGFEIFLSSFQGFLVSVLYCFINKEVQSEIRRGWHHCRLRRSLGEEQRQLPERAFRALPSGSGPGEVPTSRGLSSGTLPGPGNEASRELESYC", "experiment": "Agonist activity against human GIPR, CRE-luciferase reporter assay (rise in intracellular cAMP) in hGIPR/CRE-LUC/CHO-K1 cells", "format": "cell-based", "conditions": "hGIPR/CRE-LUC/CHO-K1 cells, 4 hours incubation; 10 nM GIP = 100%; read-out: Agonist activity (EC50) hGIPR"}}, "note": "Square brackets hold non-standard residues; d marks the D form. Peptide text beside a SMILES is read from it. αMeF = C[C@](N)(Cc1ccccc1)C(=O)O; Aib = CC(C)(N)C(=O)O"}
{"smiles": "CC(C)C[C@H](NC(=O)[C@H](CC(C)C)NC(=O)[C@H](Cc1c[nH]c2ccccc12)NC(=O)[C@H](CCCCN)NC(=O)[C@@H](NC(=O)[C@H](Cc1ccccc1)NC(=O)[C@H](CCC(=O)O)NC(=O)[C@H](C)NC(=O)[C@H](CCC(N)=O)NC(=O)[C@H](C)NC(=O)[C@H](CCC(N)=O)NC(=O)[C@H](CCCCN)NC(=O)[C@H](CC(=O)O)NC(=O)[C@H](CC(C)C)NC(=O)[C@H](Cc1ccc(O)cc1)NC(=O)[C@H](CCCCN)NC(=O)C(C)(C)NC(=O)[C@H](Cc1ccc(O)cc1)NC(=O)[C@H](CC(=O)O)NC(=O)[C@H](CO)NC(=O)[C@@H](NC(=O)[C@](C)(Cc1ccccc1)NC(=O)[C@@H](NC(=O)CNC(=O)[C@H](CCC(=O)O)NC(=O)C(C)(C)NC(=O)[C@@H](N)Cc1ccc(O)cc1)[C@@H](C)O)[C@@H](C)O)C(C)C)C(=O)N[C@@H](CCCCN)C(=O)NCC(=O)NCC(=O)N1CCC[C@H]1C(=O)N[C@@H](CO)C(=O)N[C@@H](CO)C(=O)NCC(=O)N[C@@H](C)C(=O)N1CCC[C@H]1C(=O)N1CCC[C@H]1C(=O)N1CCC[C@H]1C(=O)N[C@@H](CO)C(=O)N[C@@H](CCCCN)C(N)=O", "note": "[Example 24] (H-Y[Aib]EGT[αMeF]TSDY[Aib]KYLDKQAQAEFVKWLLKGGPSSGAPPPSK-NH2)", "values": [{"measurement": "solubility", "setting": "[1]; pH 3", "result": "> 200", "unit": "mg/mL"}, {"measurement": "solubility", "setting": "[1]; pH 5", "result": "> 200", "unit": "mg/mL"}, {"measurement": "solubility", "setting": "[1]; pH 7", "result": "> 200", "unit": "mg/mL"}, {"measurement": "solubility", "setting": "[1]; pH 9", "result": "> 200", "unit": "mg/mL"}, {"measurement": "EC50", "setting": "[2]", "result": 0.011, "unit": "nM"}, {"measurement": "EC50", "setting": "[3]", "result": "> 1000", "unit": "nM"}, {"measurement": "EC50", "setting": "[4]", "result": 0.0099, "unit": "nM"}]}
